Series [1] relates to Phytophthora. Description: D-3: Action against Phytophthora on potato plants (residual-protective and systemic action). The series is classed as in vivo. The following applies: potato plants (Bintje variety), spray mixture 0.02% active ingredient (sprayed or watered), evaluated after 4 days at 90-100% relative humidity and 20° C. On the procedure:
D-3 Action Against Phytophthora on Potato Plants
(§1) a) Residual-Protective Action
(§2) 2-3 week old potato plants (Bintje variety) are sprayed with a spray mixture (0.02% active ingredient) prepared from a wettable powder formulation of the test compound. After 48 hours, the treated plants are infected with a sporangia suspension of the fungus. Fungus infestation is evaluated after incubation of the infected plants for 4 days at 90-100% relative humidity and 20° C.
as §2, with “watered” for “sprayed”, “ingredient based on the volume of the soil)” for “ingredient)”, “compound. […]” for “compound.”, “C. Fungal infestation is effectively controlled with compounds of Tables 1 to 37. Compounds A1.02, A1.03, A1.04, A1.03, A1.05, A1.06, A1.07, A1.09, A1.10, A1.13, A1.14, A1.15, A1.16, A1.21, A1.23.” for “C.”

Series [2] has as its system Phytophthora. Put plainly: D-2: Action against Phytophthora on tomato plants (residual-protective and systemic action). The note with it: spray mixture 0.02% active ingredient (sprayed or watered), evaluated after 4-5 days at 90-100% relative humidity and 20° C. The series is classed as in vivo. On the procedure: D-2: Action Against Phytophthora on Tomato Plants
as §1
After a cultivation period of 3 weeks, tomato plants are sprayed with a spray mixture (0.02% active ingredient) prepared from a wettable powder formulation of the test compound. After 48 hours, the treated plants are infected with a sporangia suspension of the fungus. Fungus infestation is evaluated after incubation of the infected plants for 5 days at 90-100% relative humidity and 20° C.
After a cultivation period of 3 weeks, tomato plants are watered with a spray mixture (0.02% active ingredient based on the volume of the soil) prepared from a wettable powder formulation of the test compound. […] After 96 hours, the treated plants are infected with a sporangia suspension of the fungus. Fungus infestation is evaluated after incubation of the infected plants for 4 days at 90-100% relative humidity and 20° C. […] Compounds A1.02, A1.03, A1.04, A1.03, A1.05, A1.06, A1.07, A1.09, A1.10, A1.13, A1.14, A1.15, A1.16, A1.21, A1.23.

The test system of a further series is Plasmopara viticola. Put plainly: D-1: Action against Plasmopara viticola on vines (residual-protective and residual-curative action). In kind it is in vivo. The note with it: vine seedlings, spray mixture 0.02% active ingredient, evaluated after 6 days at 95-100% relative humidity and 20° C. The protocol: D-1: Action against Plasmopara viticola on Vines a) Residual-Protective Action
Vine seedlings are sprayed at the 4- to 5-leaf stage with a spray mixture (0.02% active ingredient) prepared from a wettable powder formulation of the test compound. After 24 hours, the treated plants are infected with a sporangia suspension of the fungus. Fungus infestation is evaluated after incubation for 6 days at 95-100% relative humidity and 20° C. […]
b) Residual-Curative Action
Vine seedlings are infected at the 4- to 5-leaf stage with a sporangia suspension of the fungus. After incubation for 24 hours in a humidity chamber at 95-100% relative humidity and 20° C., the infected plants are dried and sprayed with a spray mixture (0.02% active ingredient) prepared from a wettable powder formulation of the test compound. After the spray coating has dried, the treated plants are placed in the humidity chamber again. Fungus infestation is evaluated 6 days after infection. […] Compounds A1.02, A1.03, A1.04, A1.03, A1.5, A1.06, A1.07, A1.09, A1.10, A1.13, A1.14, A1.15, A1.16, A1.21, A1.23.

Consider `CCS(=O)(=O)N[C@H](C(=O)NCCc1ccc(OC/C=C\c2ccc(Cl)cc2)c(OC)c1)C(C)C` [Compound A3.03, Z-(S)-N-(2-{4-[3-(4-Chloro-phenyl)-allyloxy]-3-methoxy-phenyl}-ethyl)-2-ethanesulfonylamino-3-methyl-butyramide], for which the melting point (in general, the temperature, or range, at which the solid turns liquid) fell in the range of 141 to 143 °C. Moreover, the Fungus infestation entry in the series with Phytophthora [1] was “completely inhibit fungal infestation”. For the same compound, the Fungus infestation result in the series with Phytophthora [2] is listed as “completely inhibit fungal infestation”. Also, in the series on Plasmopara viticola, the Fungus infestation entry is reported as “completely inhibit fungal infestation”.

`COc1cc(CCNC(=O)[C@@H](NS(C)(=O)=O)C(C)C)ccc1OC/C=C/c1ccc(Cl)cc1` [Compound A2.04]: the Fungus infestation entry in the series on Phytophthora [1], in the series with Phytophthora [2] and in the series with Plasmopara viticola was “completely inhibit fungal infestation” each time.

For the compound `CC[C@H](NS(=O)(=O)CC)C(=O)NCCc1ccc(OCCOc2ccc(F)cc2)c(OC)c1` [Compound A1.05], the Fungus infestation entry with Phytophthora [1], in the series on Phytophthora [2] and with Plasmopara viticola was “completely inhibit fungal infestation” throughout.

On to `CCS(=O)(=O)N[C@H](C(=O)NCCc1ccc(OCCOc2ccccc2Cl)c(OC)c1)C(C)C` [Compound A1.21], for which the Fungus infestation entry in the series on Phytophthora [1], in the series on Phytophthora [2] and in the series with Plasmopara viticola was “completely inhibit fungal infestation” in each case.

As to `COc1cc(CCNC(=O)[C@@H](NS(C)(=O)=O)C(C)C)ccc1OCCOc1cccc(F)c1` [Compound A1.76], the Fungus infestation result in the series with Phytophthora [1], in the series on Phytophthora [2] and in the series with Plasmopara viticola was “completely inhibit fungal infestation” throughout.

As to `CCS(=O)(=O)N[C@H](C(=O)NCCc1ccc(OCCOc2ccc(C)cc2)c(OC)c1)C(C)C` [Compound A1.24], the Fungus infestation result in the series with Phytophthora [1], in the series with Phytophthora [2] and with Plasmopara viticola was “completely inhibit fungal infestation” in each case.

`CCS(=O)(=O)N[C@H](C(=O)NCCc1ccc(OCCOc2ccc(F)cc2)c(OC)c1)C(C)C`: the melting point fell in the range of 124 to 125 °C.

The record behind these values is US20020082452A1, “alpha-sulfin-and alpha-sulfonamino acid amides” (priority 1998, published 2002).
